# Test results taken from PubChem BioAssay AID330 (DTP/NCI, 2004).
# Several values for one entry are separate records, joined by “and”; a condition that tells them apart may be missing. Equal entries are not always repeated. Toxic doses and inconclusive results are not listed.
# System: P388 leukemia ip, CD2F1 mice, survival T/C
# Assay: NCI In Vivo Anticancer Drug Screen. Data for tumor model P388 Leukemia (intraperitoneal) in CD2F1 (CDF1) mice
# Conditions: endpoint: median survival time, higher = longer survival
# Procedure, shortened: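 Mice carrying the transplanted tumor received test compound or vehicle. Survival was recorded in each group, and the value is the treated-group measurement divided by that of the vehicle-treated control group.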
# [1] = dose: 60.0 mg/kg/injection, schedule: Q01DX005 (ip), vehicle: saline with Tween-80
# [2] = dose: 120.0 mg/kg/injection, schedule: Q01DX005 (ip), vehicle: saline with Tween-80
# [3] = dose: 50.0 mg/kg/injection, schedule: Q01DX009 (ip), vehicle: saline
# [4] = dose: 100.0 mg/kg/injection, schedule: Q01DX009 (ip), vehicle: saline
# [5] = dose: 25.0 mg/kg/injection, schedule: Q01DX009 (ip), vehicle: saline with Tween-80
# [6] = dose: 50.0 mg/kg/injection, schedule: Q01DX009 (ip), vehicle: saline with Tween-80
# [7] = dose: 100.0 mg/kg/injection, schedule: Q01DX009 (ip), vehicle: saline with Tween-80
smiles,measurement,setting,value
CCOc1cc2c(C)c3ccccc3c(C)c2c2ccccc12,T/C,"dose: 42.0 mg/kg/injection, schedule: Q01DX009 (ip), vehicle: saline with Tween-80",98 % of control
same,T/C,"dose: 50.0 mg/kg/injection, schedule: Q04DX003 (ip), vehicle: other",88 % of control
same,T/C,"dose: 84.0 mg/kg/injection, schedule: Q01DX009 (ip), vehicle: saline with Tween-80",94 % of control
same,T/C,"dose: 100.0 mg/kg/injection, schedule: Q04DX003 (ip), vehicle: other",86 % of control
same,T/C,"dose: 168.0 mg/kg/injection, schedule: Q01DX009 (ip), vehicle: saline with Tween-80",107 % of control
same,T/C,"dose: 400.0 mg/kg/injection, schedule: Q04DX003 (ip), vehicle: other",86 % of control
CCN(CC)c1ccc(C(=N)c2ccc(N(CC)CC)cc2)cc1,T/C,"dose: 12.5 mg/kg/injection, schedule: Q01DX005 (ip), vehicle: Klucel (hydroxypropylcellulose) (HPC)",101 % of control
same,T/C,"dose: 25.0 mg/kg/injection, schedule: Q01DX005 (ip), vehicle: Klucel (hydroxypropylcellulose) (HPC)",99 % of control
same,T/C,"dose: 50.0 mg/kg/injection, schedule: Q01DX005 (ip), vehicle: Klucel (hydroxypropylcellulose) (HPC)",89 % of control and 90 % of control
CCC(c1ccc(OC)cc1)C(NCC(=O)N/N=C/c1ccc(N(C)C)cc1)c1ccc(OC)cc1 (stereo not drawn),T/C,"dose: 100.0 mg/kg/injection, schedule: Q01DX001 (ip), vehicle: saline with Tween-80",100 % of control
same,T/C,"dose: 200.0 mg/kg/injection, schedule: Q01DX001 (ip), vehicle: saline with Tween-80",100 % of control
same,T/C,"dose: 400.0 mg/kg/injection, schedule: Q01DX001 (ip), vehicle: saline with Tween-80",99 % of control
COc1ccc2c(c1)OC(C)(C)C(c1ccccc1)=C2c1ccc2c(c1)NCCO2,T/C,"dose: 15.0 mg/kg/injection, schedule: Q01DX005 (ip), vehicle: saline with Tween-80",99 % of control
same,T/C,"dose: 30.0 mg/kg/injection, schedule: Q01DX005 (ip), vehicle: saline with Tween-80",91 % of control
same,T/C,[1],91 % of control
COc1ccc2c(O)c3[n+](cc2c1OC)CCc1cc2c(cc1-3)OCO2,T/C,[1],99 % of control
same,T/C,[2],104 % of control
same,T/C,"dose: 240.0 mg/kg/injection, schedule: Q01DX005 (ip), vehicle: saline with Tween-80",101 % of control
CCOC(=O)C1=C(C(C)=O)C(c2ccccc2[N+](=O)[O-])C(C(C)=O)=C(C(=O)OCC)N1,T/C,"dose: 60.0 mg/kg/injection, schedule: Q01DX005 (ip), vehicle: saline",104 % of control
same,T/C,"dose: 120.0 mg/kg/injection, schedule: Q01DX005 (ip), vehicle: saline",105 % of control
same,T/C,"dose: 240.0 mg/kg/injection, schedule: Q01DX005 (ip), vehicle: saline",96 % of control
NCCCC(N)(C(=O)O)C(F)F (stereo not drawn),T/C,"dose: 50.0 mg/kg/injection, schedule: Q01DX005 (ip), vehicle: saline",106 % of control
same,T/C,"dose: 50.0 mg/kg/injection, schedule: Q01DX009 (ip), vehicle: distilled water + alcohol",112 % of control
same,T/C,[3],87 % of control
same,T/C,"dose: 100.0 mg/kg/injection, schedule: Q01DX005 (ip), vehicle: saline",103 % of control
same,T/C,"dose: 100.0 mg/kg/injection, schedule: Q01DX009 (ip), vehicle: distilled water + alcohol",112 % of control
same,T/C,[4],103 % of control
same,T/C,"dose: 200.0 mg/kg/injection, schedule: Q01DX005 (ip), vehicle: saline",103 % of control
same,T/C,"dose: 200.0 mg/kg/injection, schedule: Q01DX009 (ip), vehicle: distilled water + alcohol",115 % of control
same,T/C,"dose: 200.0 mg/kg/injection, schedule: Q01DX009 (ip), vehicle: saline",110 % of control
same,T/C,"dose: 400.0 mg/kg/injection, schedule: Q01DX009 (ip), vehicle: distilled water + alcohol",119 % of control
same,T/C,"dose: 800.0 mg/kg/injection, schedule: Q01DX009 (ip), vehicle: distilled water + alcohol",111 % of control
O=C1CC2NC(=O)C(CCCCN1)NC2=O (stereo not drawn),T/C,"dose: 1.5 mg/kg/injection, schedule: Q01DX009 (ip), vehicle: Klucel (hydroxypropylcellulose) (HPC)",100 % of control
same,T/C,"dose: 3.0 mg/kg/injection, schedule: Q01DX009 (ip), vehicle: Klucel (hydroxypropylcellulose) (HPC)",99 % of control
same,T/C,"dose: 6.0 mg/kg/injection, schedule: Q01DX009 (ip), vehicle: Klucel (hydroxypropylcellulose) (HPC)",97 % of control
same,T/C,"dose: 12.0 mg/kg/injection, schedule: Q01DX009 (ip), vehicle: Klucel (hydroxypropylcellulose) (HPC)",109 % of control
Oc1cc2cccc[n+]2c2ccccc12,T/C,"dose: 15.0 mg/kg/injection, schedule: Q01DX005 (ip), vehicle: Klucel (hydroxypropylcellulose) (HPC)",99 % of control
same,T/C,"dose: 30.0 mg/kg/injection, schedule: Q01DX005 (ip), vehicle: Klucel (hydroxypropylcellulose) (HPC)",101 % of control
same,T/C,"dose: 60.0 mg/kg/injection, schedule: Q01DX005 (ip), vehicle: Klucel (hydroxypropylcellulose) (HPC)",118 % of control and 97 % of control
CC(C)=C(C#N)N(C)C(C)(C)C,T/C,[3],100 % of control
same,T/C,[4],97 % of control
Cc1c2ccncc2c(CO)c2c3ccccc3n(C)c12,T/C,"dose: 5.0 mg/kg/injection, schedule: Q01DX005 (ip), vehicle: saline",109 % of control
same,T/C,"dose: 10.0 mg/kg/injection, schedule: Q01DX005 (ip), vehicle: saline",97 % of control
same,T/C,"dose: 20.0 mg/kg/injection, schedule: Q01DX005 (ip), vehicle: saline",97 % of control
Cc1[nH]c(C(=O)NN)c(C)c1C(=O)NN,T/C,[5],91 % of control
same,T/C,[6],95 % of control
same,T/C,[7],91 % of control
Cc1c(Br)c(Br)nn1C(C)C(=O)N(C)C (stereo not drawn),T/C,"dose: 50.0 mg/kg/injection, schedule: Q01DX009 (ip), vehicle: Klucel (hydroxypropylcellulose) (HPC)",110 % of control
same,T/C,"dose: 100.0 mg/kg/injection, schedule: Q01DX009 (ip), vehicle: Klucel (hydroxypropylcellulose) (HPC)",99 % of control
same,T/C,"dose: 200.0 mg/kg/injection, schedule: Q01DX009 (ip), vehicle: Klucel (hydroxypropylcellulose) (HPC)",101 % of control
O=C(O)C1(Br)CC2(C1)CC(Br)(C(=O)O)C2 (stereo not drawn),T/C,"dose: 100.0 mg/kg/injection, schedule: Q04DX002 (ip), vehicle: other",94 % of control
same,T/C,"dose: 200.0 mg/kg/injection, schedule: Q04DX002 (ip), vehicle: other",91 % of control
same,T/C,"dose: 400.0 mg/kg/injection, schedule: Q04DX002 (ip), vehicle: other",103 % of control
COc1ccc(NC(=O)Oc2ccc3c(C)cc(=O)oc3c2)c(OC)c1 (tested in a mixture with another compound),T/C,[1],106 % of control and 117 % of control
same,T/C,[2],120 % of control and 121 % of control
O=NNc1ccc(S(=O)(=O)c2ccccc2)cn1,T/C,"dose: 3.12 mg/kg/injection, schedule: Q01DX009 (ip), vehicle: sodium bicarbonate",98 % of control
same,T/C,"dose: 6.25 mg/kg/injection, schedule: Q01DX009 (ip), vehicle: sodium bicarbonate",98 % of control
same,T/C,"dose: 12.5 mg/kg/injection, schedule: Q01DX009 (ip), vehicle: sodium bicarbonate",94 % of control and 96 % of control
same,T/C,"dose: 25.0 mg/kg/injection, schedule: Q01DX009 (ip), vehicle: sodium bicarbonate",100 % of control and 104 % of control
same,T/C,"dose: 50.0 mg/kg/injection, schedule: Q01DX009 (ip), vehicle: sodium bicarbonate",109 % of control
same,T/C,"dose: 100.0 mg/kg/injection, schedule: Q01DX009 (ip), vehicle: sodium bicarbonate",160 % of control
CC(C)COP(=O)(OCC(C)C)OCC(C)C,T/C,[5],100 % of control
same,T/C,[6],109 % of control
same,T/C,"dose: 50.0 mg/kg/injection, schedule: Q04DX003 (ip), vehicle: saline with Tween-80",100 % of control
same,T/C,"dose: 100.0 mg/kg/injection, schedule: Q04DX003 (ip), vehicle: saline with Tween-80",90 % of control
same,T/C,"dose: 200.0 mg/kg/injection, schedule: Q04DX003 (ip), vehicle: saline with Tween-80",95 % of control
O=c1[nH]ncn2nc3ccccc3c12,T/C,"dose: 50.0 mg/kg/injection, schedule: Q01DX005 (ip), vehicle: saline with Tween-80",100 % of control
same,T/C,"dose: 100.0 mg/kg/injection, schedule: Q01DX005 (ip), vehicle: saline with Tween-80",100 % of control
same,T/C,"dose: 200.0 mg/kg/injection, schedule: Q01DX005 (ip), vehicle: saline with Tween-80",104 % of control
CCOc1c(N=Nc2ccccc2Cl)c(C)nn1C(=S)SC,T/C,"dose: 60.0 mg/kg/injection, schedule: Q01DX005 (ip), vehicle: Klucel + Tween-80",103 % of control
same,T/C,"dose: 120.0 mg/kg/injection, schedule: Q01DX005 (ip), vehicle: Klucel + Tween-80",112 % of control
same,T/C,"dose: 240.0 mg/kg/injection, schedule: Q01DX005 (ip), vehicle: Klucel + Tween-80",103 % of control
COc1cc2c(cc1C[N+](C)(C)CSc1ccccc1)-c1ccccc1CC2,T/C,"dose: 1.25 mg/kg/injection, schedule: Q01DX005 (ip), vehicle: DMSO",108 % of control
same,T/C,"dose: 2.5 mg/kg/injection, schedule: Q01DX005 (ip), vehicle: DMSO",101 % of control
same,T/C,"dose: 5.0 mg/kg/injection, schedule: Q01DX005 (ip), vehicle: DMSO",105 % of control
CCOC(=O)c1ccc(NC(=O)Nc2nc3cc(C)c(C)cc3s2)cc1,T/C,[6],99 % of control
same,T/C,[7],95 % of control
same,T/C,"dose: 200.0 mg/kg/injection, schedule: Q01DX009 (ip), vehicle: saline with Tween-80",93 % of control
